The record followed here is ChEMBL document CHEMBL1132848, “1H-pyrazole-1-carboxamidines: new inhibitors of nitric oxide synthase” (Bioorg Med Chem Lett, 2000).

Assay [1] concerns the target T1, Nitric oxide synthase 1 (Rattus norvegicus, UniProt P29476). Kind of assay: Inhibition against neuronal Nitric Oxide Synthase(nNOS).
Another assay concerns the target T2, Nitric oxide synthase 3 (Bos taurus, UniProt P29473).
T2 sequence (P29473 whole entry): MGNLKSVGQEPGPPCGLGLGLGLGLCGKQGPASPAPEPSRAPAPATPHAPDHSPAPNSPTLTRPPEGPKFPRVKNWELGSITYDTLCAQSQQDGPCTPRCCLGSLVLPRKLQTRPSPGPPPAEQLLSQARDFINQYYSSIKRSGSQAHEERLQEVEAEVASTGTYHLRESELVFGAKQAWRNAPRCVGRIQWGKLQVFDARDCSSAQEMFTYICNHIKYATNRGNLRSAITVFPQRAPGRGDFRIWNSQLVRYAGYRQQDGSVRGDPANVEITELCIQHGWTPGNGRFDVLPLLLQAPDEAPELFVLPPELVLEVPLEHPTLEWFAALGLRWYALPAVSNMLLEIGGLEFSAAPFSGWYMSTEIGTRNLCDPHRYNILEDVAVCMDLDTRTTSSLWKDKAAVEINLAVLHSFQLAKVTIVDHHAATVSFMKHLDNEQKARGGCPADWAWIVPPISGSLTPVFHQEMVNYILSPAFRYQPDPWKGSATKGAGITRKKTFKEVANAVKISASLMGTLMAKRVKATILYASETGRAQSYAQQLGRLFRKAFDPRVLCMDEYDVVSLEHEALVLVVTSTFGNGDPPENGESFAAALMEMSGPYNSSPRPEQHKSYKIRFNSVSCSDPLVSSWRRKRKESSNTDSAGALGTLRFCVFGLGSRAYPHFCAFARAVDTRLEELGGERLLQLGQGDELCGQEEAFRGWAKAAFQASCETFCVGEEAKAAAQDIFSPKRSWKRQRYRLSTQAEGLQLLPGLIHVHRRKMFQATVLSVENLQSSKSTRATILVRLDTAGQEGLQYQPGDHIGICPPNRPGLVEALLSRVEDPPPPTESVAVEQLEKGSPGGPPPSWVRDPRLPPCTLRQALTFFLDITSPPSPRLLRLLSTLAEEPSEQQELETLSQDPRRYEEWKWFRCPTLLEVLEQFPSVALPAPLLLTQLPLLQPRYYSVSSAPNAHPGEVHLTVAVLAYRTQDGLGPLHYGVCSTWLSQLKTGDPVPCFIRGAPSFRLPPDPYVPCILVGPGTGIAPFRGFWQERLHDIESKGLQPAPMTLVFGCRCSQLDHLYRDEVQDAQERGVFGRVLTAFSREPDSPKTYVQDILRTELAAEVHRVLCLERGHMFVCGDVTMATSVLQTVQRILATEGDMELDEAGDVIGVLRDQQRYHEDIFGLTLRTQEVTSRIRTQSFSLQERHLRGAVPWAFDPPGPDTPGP
Put plainly: Inhibition against endothelial Nitric Oxide Synthase(eNOS).

The nature of assay [2]: Selectivity for neuronal (nNOS) and endothelial Nitric Oxide Synthase(eNOS). More on the design: reference not given here.
Assay [3] can be described thus: Selectivity for neuronal(nNOS) and induced Nitric Oxide Synthase(iNOS). The arrangement: reference not given here.
Assay [4] addresses T3, Nitric oxide synthase, inducible (Mus musculus, UniProt P29477).
T3 sequence (P29477 whole entry): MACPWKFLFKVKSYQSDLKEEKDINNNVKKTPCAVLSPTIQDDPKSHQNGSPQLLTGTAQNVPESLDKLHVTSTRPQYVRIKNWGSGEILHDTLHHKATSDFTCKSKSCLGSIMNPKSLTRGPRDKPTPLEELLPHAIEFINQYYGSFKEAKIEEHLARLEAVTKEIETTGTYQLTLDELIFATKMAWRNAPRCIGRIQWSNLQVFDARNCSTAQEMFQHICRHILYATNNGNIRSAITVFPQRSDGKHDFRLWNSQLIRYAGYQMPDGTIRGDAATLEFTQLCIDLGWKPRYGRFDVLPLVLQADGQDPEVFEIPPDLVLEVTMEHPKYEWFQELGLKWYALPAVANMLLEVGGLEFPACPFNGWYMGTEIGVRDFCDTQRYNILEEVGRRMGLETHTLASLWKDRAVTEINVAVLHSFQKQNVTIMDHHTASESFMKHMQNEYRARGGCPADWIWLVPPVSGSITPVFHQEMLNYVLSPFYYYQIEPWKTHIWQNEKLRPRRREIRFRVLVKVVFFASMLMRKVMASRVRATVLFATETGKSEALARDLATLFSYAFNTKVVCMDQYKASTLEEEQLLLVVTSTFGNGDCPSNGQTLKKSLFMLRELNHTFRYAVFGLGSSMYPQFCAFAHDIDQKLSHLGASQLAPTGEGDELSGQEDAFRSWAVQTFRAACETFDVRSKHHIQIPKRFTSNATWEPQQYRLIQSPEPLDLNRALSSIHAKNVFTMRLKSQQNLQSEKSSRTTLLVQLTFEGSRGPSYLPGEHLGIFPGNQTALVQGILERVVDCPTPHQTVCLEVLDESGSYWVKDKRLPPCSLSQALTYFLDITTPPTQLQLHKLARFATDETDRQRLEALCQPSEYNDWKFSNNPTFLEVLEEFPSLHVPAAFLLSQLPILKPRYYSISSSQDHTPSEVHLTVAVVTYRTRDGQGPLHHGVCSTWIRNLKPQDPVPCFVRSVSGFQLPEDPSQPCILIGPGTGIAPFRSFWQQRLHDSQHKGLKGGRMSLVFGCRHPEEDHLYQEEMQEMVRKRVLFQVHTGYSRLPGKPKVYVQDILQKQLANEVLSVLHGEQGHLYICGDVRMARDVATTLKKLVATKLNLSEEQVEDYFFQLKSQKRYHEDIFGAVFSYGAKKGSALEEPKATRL
Kind of assay: Inhibition against induced Nitric Oxide Synthase(iNOS).

Assay [5] has as its target Nitric oxide synthase 1 (Rattus norvegicus) (UniProt P29476). Kind of assay: (§1) Time dependent inhibition against neuronal Nitric Oxide Synthase(nNOS).
In assay [6] the target is T1, Nitric oxide synthase 1. The assay is described as §1.

T1 sequence (P29476 whole entry): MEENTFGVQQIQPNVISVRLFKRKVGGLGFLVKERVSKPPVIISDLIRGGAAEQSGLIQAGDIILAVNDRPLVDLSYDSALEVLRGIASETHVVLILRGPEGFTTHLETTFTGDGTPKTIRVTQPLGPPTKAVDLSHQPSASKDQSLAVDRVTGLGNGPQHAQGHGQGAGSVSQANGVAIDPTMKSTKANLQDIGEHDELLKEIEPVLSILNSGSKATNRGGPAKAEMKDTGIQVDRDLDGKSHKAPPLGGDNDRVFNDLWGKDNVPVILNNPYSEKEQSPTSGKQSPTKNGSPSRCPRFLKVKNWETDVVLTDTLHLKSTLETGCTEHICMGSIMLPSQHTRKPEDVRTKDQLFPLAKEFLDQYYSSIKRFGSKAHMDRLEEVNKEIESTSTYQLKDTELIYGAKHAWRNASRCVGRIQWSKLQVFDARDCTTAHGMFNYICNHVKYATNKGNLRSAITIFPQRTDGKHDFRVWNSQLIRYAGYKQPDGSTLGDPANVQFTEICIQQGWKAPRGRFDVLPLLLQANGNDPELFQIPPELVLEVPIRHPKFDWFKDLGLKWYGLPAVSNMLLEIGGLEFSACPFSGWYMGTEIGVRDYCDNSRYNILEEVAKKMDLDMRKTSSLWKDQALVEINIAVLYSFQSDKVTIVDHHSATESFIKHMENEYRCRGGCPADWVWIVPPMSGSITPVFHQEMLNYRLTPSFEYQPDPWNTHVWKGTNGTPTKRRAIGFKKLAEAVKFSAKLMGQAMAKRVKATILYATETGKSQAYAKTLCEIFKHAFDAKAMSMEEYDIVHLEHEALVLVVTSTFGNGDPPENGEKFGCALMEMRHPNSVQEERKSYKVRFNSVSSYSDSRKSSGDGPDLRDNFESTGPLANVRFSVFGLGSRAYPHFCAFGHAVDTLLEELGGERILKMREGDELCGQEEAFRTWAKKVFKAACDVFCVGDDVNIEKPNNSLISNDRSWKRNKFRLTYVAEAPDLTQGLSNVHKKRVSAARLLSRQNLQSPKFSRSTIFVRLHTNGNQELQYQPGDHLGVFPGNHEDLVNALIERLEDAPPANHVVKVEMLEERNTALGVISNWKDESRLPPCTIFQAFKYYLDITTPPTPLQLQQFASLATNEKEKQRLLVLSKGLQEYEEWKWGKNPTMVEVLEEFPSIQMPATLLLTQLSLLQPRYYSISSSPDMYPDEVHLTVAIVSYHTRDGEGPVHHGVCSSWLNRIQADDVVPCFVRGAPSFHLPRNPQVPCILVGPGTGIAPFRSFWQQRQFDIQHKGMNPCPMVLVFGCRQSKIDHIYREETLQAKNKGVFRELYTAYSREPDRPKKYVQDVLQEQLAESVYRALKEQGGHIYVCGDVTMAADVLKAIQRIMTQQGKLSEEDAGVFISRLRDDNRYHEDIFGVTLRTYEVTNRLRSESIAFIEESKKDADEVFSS
Chain of Nitric oxide synthase 1 (Rattus norvegicus) (P29476 whole entry): as above

With `N=C(Nc1cccc(CN)c1)n1cccn1`, the Ki worked out at 2 µM at Nitric oxide synthase 1 [1], 200 µM at Nitric oxide synthase 3 and 12 µM in assay [4]. In addition, the figures for the Ratio in assay [2] and in assay [3] were 100 and 6, respectively.

On to `CC(C)C/N=C(\N)n1cccn1`, for which the Ki worked out at 45 µM at Nitric oxide synthase 1 [1], 180 µM on Nitric oxide synthase 3 and 150 µM in assay [4]. The figures for the Ratio in assay [2] and in assay [3] were 4 and 3.3, respectively.

Regarding `CCCCC/N=C(\N)n1cccn1`, the Ki on Nitric oxide synthase 1 [1] turned out to be 60 µM; at Nitric oxide synthase 3, 700 µM; in assay [4], 50 µM. The values for the Ratio in assay [2] and in assay [3] were 14 and 0.8, respectively.

With `N=C(NCC1CC1)n1cccn1`, the Ki at Nitric oxide synthase 1 [1] amounted to 10 µM; on Nitric oxide synthase 3, 80 µM; in assay [4] it was 22 µM. Moreover, the Ratio was 8 in assay [2] and 2.2 in assay [3].

With `Cc1ccn(C(=N)N)n1`, the Ki was determined as 8 µM at Nitric oxide synthase 1 [1], 100 µM on Nitric oxide synthase 3 and 9 µM in assay [4]. Further, the results for the Ratio in assay [2] and in assay [3] were 13 and 1.1, respectively.

With `Cc1cnn(C(=N)N)c1`, the Ki on Nitric oxide synthase 1 [1] is 12 µM; on Nitric oxide synthase 3 it was 190 µM; in assay [4], 3 µM. In addition, the Ratio is 16 in assay [2] and 0.3 in assay [3].

For the compound `N=C(NC1CC1)n1cccn1`, the figures for the Ki (at Nitric oxide synthase 1 [1]; at Nitric oxide synthase 3; in assay [4]) were 50 µM, 120 µM and 80 µM, respectively. Moreover, the Ratio amounted to 2.4 in assay [2] and 1.6 in assay [3].

In the case of `N=C(N)n1cccn1`, the Ki on Nitric oxide synthase 1 [1] is 0.4 µM; at Nitric oxide synthase 3, 0.5 µM; in assay [4], 0.7 µM. Also, the Ratio came to 1.3 in assay [2] and 1.8 in assay [3].

Turning to `CCCC/N=C(\N)n1cccn1`, the Ki on Nitric oxide synthase 1 [1] was 14 µM; at Nitric oxide synthase 3 it was 25 µM; in assay [4] it was 14 µM. Further, the Ratio in assay [2] is 1.8; in assay [3], 1.

For `N=C(Nc1cccc(CN)c1)c1cccs1`, the Ki on Nitric oxide synthase 3 amounted to 0.46 µM; in assay [4], 0.12 µM.

With `CCCC/N=C(\N)NCCC`, the Ki came out at 700 µM at Nitric oxide synthase 1 [1], 650 µM on Nitric oxide synthase 3 and 780 µM in assay [4]. Also, the Ratio came out at 0.9 in assay [2] and 1.1 in assay [3].

The compound `N=C(Nc1cccc(CN)c1)c1ccco1` showed a Ki in assay [4] of 0.16 µM.

On to `NCCCC/N=C(\N)n1cccn1`, for which the Ki on Nitric oxide synthase 1 [1] amounted to 6 µM; at Nitric oxide synthase 3, 460 µM; in assay [4], 50 µM. The Ratio worked out at 77 in assay [2] and 8.3 in assay [3].

Consider `CCC/N=C(\N)n1cccn1`, for which the Ki came to 3 µM on Nitric oxide synthase 1 [1], 9 µM at Nitric oxide synthase 3, 5 µM in assay [4] and 33 µM on Nitric oxide synthase 1 [6]. In assay [5], this compound registered a K inact of 0.024 min⁻¹. Besides, the Ratio in assay [2] was 3; in assay [3], 1.7.

For `Cc1cc(C)n(C(=N)N)n1`, the figures for the Ki (on Nitric oxide synthase 1 [1]; at Nitric oxide synthase 3; in assay [4]) were 350 µM, 1500 µM and 750 µM, respectively. In addition, the Ratio in assay [2] is 4.3; in assay [3] it was 2.1.
